Laboratory results from US20260048068A1, “PHENYLUREA DERIVATIVES AND THEIR PHARMACEUTICAL USES” (HANGZHOU BIO-SINCERITY PHARMA-TECH CO., LTD., priority 2022, published 2026).

How the values were obtained:
CCI model rats = experiment: Chronic constriction injury (CCI) neuropathic pain model, mechanical withdrawal threshold; type: in vivo; conditions: CCI SD rats; for Mechanical pain (withdrawal) threshold vs model group: single dose, 0.5-6 h
Description: Exposing the sciatic nerve on male SD rats' (180-200 g) right hind leg, in the anterior segment where the sciatic nerve is about to bifurcate, use sterile chromic gut thread (No. 4, 0.15 mm in diameter) to ligate 4 loops loosely, with each loop 1-2 mm apart, and suture the muscle and skin to establish the chronic constriction injury (CCI) model. In the sham-operated group, only the sciatic nerve is exposed without ligation, and the muscle and skin are sutured. The mechanical withdrawal threshold is detected by electronic analgesia meter (IITC-2391) on the 7th day for 2 consecutive days.
The CCI model rats with stabilized mechanical withdrawal thresholds were randomly divided into three groups, named model group (model), pregabalin group (Pre, 30 mg/kg), BIOS-A-3 compound group (1 mg/kg), and were administered at 1 mL/100 g by gavage, and the same column of saline was gavaged in Sham and model group. The basic value was determined before drug administration, and the mechanical withdrawal thresholds were detected at 0.5 h, 1 h, 2 h, 4 h and 6 h after a single drug administration, and the p value was calculated by ANOVA with T-test.

histamine H3 receptor = histamine H3 receptor (Homo sapiens, UniProt Q9Y5N1); experiment: FLPPR assay, antagonistic activity at histamine H3 receptor; type: cell-based; conditions: for inhibition at 0.005 µM: 5 nM compound, read-out: % Inh-AVERAGE @ 5 nM; for inhibition at 0.05 µM: 50 nM compound, read-out: % Inh-AVERAGE @ 50 nM
Chain of histamine H3 receptor (Q9Y5N1 whole entry, species assumed): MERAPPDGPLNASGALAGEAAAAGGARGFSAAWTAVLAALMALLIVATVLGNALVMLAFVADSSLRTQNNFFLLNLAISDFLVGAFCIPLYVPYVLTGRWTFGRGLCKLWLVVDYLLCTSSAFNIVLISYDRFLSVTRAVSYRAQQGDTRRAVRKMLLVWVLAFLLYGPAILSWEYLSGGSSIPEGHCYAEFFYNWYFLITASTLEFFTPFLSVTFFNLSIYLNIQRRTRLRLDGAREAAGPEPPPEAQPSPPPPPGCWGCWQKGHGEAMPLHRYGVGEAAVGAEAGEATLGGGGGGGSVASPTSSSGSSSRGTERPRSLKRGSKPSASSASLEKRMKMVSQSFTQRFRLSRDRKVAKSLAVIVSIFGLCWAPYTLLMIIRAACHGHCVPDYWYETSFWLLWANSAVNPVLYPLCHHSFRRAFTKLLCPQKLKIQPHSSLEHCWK
Method: The FLPPR assay (NIH Assay Guidance Manual: HTS Assay Validation-Section 4.3. Analysis (Potency), htpps://www.ncbi.nlm.nih.gov/books/NBK83783) was performed using SUVN-G3031 as the positive control, and 13 target compounds were tested for the antagonistic activity target to histamine H3 receptor.

hERG channel = hERG channel (Homo sapiens, UniProt Q12809); experiment: in vitro
Chain of hERG channel (Q12809 whole entry): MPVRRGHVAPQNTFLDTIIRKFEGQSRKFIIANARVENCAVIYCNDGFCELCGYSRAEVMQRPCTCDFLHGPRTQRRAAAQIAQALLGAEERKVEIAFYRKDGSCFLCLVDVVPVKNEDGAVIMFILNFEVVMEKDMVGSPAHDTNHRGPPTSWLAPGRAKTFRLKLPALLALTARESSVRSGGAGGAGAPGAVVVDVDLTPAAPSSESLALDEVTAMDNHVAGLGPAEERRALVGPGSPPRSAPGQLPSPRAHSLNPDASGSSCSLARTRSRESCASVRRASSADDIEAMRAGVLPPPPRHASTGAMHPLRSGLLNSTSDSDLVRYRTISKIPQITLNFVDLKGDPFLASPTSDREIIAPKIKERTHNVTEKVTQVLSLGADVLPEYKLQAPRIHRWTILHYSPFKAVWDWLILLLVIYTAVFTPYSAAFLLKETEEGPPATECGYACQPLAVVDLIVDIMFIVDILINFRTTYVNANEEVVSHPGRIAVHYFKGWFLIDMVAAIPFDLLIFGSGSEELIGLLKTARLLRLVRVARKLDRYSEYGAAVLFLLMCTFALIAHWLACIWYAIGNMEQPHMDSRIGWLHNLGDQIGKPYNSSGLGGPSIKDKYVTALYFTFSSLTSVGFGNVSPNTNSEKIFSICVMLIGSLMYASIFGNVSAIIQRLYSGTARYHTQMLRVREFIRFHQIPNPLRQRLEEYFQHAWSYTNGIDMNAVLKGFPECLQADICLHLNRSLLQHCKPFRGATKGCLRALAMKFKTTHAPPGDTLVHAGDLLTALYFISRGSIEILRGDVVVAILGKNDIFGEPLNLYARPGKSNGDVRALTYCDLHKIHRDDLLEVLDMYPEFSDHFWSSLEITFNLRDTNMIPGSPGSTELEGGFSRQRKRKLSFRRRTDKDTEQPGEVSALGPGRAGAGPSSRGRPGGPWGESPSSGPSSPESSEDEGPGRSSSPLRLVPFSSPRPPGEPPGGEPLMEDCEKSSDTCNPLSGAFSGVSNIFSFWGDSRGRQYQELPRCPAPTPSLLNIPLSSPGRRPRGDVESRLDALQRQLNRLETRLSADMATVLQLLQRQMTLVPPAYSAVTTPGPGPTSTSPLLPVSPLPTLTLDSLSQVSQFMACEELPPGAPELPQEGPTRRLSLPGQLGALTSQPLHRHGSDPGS
Description: In cardiomyocytes, inhibition of the delayed rectifier potassium current (IKr) channel protein encoded by the human Ether-a-go-go Related Gene (hERG) is the most importane mechanism by which drugs lead to prolongation of the QT interval. hERG is characterized by a specific molecular structure, which allows it to be inhibited by different structures, leading to severe arrhythmias. Statistically, 25-40% of lead compounds show varying degrees of hERG-related toxicity. early evaluation of the effects of compounds on hERG is crucial in the drug development process. The inhibition rate of compounds on hERG channels is examined by manual membrane clamp technique on HEK293 cell line whichi stably ecpressing hERG ion channels.

[1] = Average inhibition rate (%) on hERG channel
[2] = Inhibition rate on hERG channel

SMILES: CC(C)C[C@H](CN)CC(=O)O [Pregabalin, reference compound]
- Mechanical pain (withdrawal) threshold vs model group (CCI model rats; 30 mg/kg by gavage): only increased the mechanical sting threshold of CCI rats at 0.5 h and 1 h after administration

SMILES: O=C(NCCN1CCCCC1)Nc1ccc(OC2CCN(C3CCC3)CC2)cc1 [BIOS-A-4, 1-(4-((1-cyclobutylpiperidin-4-yl)oxy)phenyl)-3-(2-(piperidin-1-yl)ethyl)urea]
- inhibition at 0.005 µM (histamine H3 receptor): 102%
- inhibition at 0.05 µM (histamine H3 receptor): 98.6%
- inhibition at 10 µM (hERG channel; [1]): 0.96%

SMILES: O=C(NCCN1CCN(C2CCC2)CC1)Nc1ccc(OC2CCN(C3CCC3)CC2)cc1 [BIOS-A-15, 1-(2-(4-cyclobutylpiperazin-1-yl)ethyl)-3-(4-((1-cyclobutylpiperidin-4-yl)oxy)phenyl)urea]
- inhibition at 0.005 µM (histamine H3 receptor): 101%
- inhibition at 0.05 µM (histamine H3 receptor): 99.9%
- inhibition at 10 µM (hERG channel; [1]): -0.55%

SMILES: CN1CCN(CCNC(=O)Nc2ccc(OC3CCN(C4CCC4)CC3)cc2)CC1 [BIOS-A-10, 1-(4-((1-cyclobutylpiperidin-4-yl)oxy)phenyl)-3-(2-(4-methylpiperazin-1-yl)ethyl)urea]
- inhibition at 0.005 µM (histamine H3 receptor): 99.7%
- inhibition at 0.05 µM (histamine H3 receptor): 101%
- inhibition at 10 µM (hERG channel; [1]): -2.92%
- inhibition at 10 µM (hERG channel; [2]): < 5%

SMILES: O=C(Nc1ccc(OC2CCN(C3CCC3)CC2)cc1)NC1CCCC1 [BIOS-A-1, 1-(4-((1-cyclobutylpiperidin-4-yl)oxy)phenyl)-3-cyclopentylurea]
- inhibition at 0.005 µM (histamine H3 receptor): 77.4%
- inhibition at 0.05 µM (histamine H3 receptor): 99.7%

SMILES: O=C(NCCN1CCOCC1)Nc1ccc(OC2CCN(C3CCC3)CC2)cc1 [BIOS-A-3, 1-(4-((1-cyclobutylpiperidin-4-yl)oxy)phenyl)-3-(2-morpholinoethyl)urea]
- inhibition at 0.005 µM (histamine H3 receptor): 95.6%
- inhibition at 0.05 µM (histamine H3 receptor): 100%
- inhibition at 10 µM (hERG channel; [1]): 1.56%
- Mechanical pain (withdrawal) threshold vs model group (CCI model rats; 1 mg/kg by gavage): significantly increased the mechanical tingling threshold of CCI model rats
- Acting time compared with pregabalin (CCI model rats; 1 mg/kg vs pregabalin 30 mg/kg): had a longer acting time

SMILES: C[C@@H]1CCCN1CCNC(=O)Nc1ccc(OC2CCN(C3CCC3)CC2)cc1 [BIOS-A-6, (R)-1-(4-((1-cyclobutylpiperidin-4-yl)oxy)phenyl)-3-(2-(2-methylpyrrolidin-1-yl)ethyl)urea]
- inhibition at 0.005 µM (histamine H3 receptor): 81.3%
- inhibition at 0.05 µM (histamine H3 receptor): 101%

SMILES: O=C(NCCN1CCCC1)Nc1ccc(OC2CCN(C3CCC3)CC2)cc1 [BIOS-A-5, 1-(4-((1-cyclobutylpiperidin-4-yl)oxy)phenyl)-3-(2-(pyrrolidin-1-yl)ethyl)urea]
- inhibition at 0.005 µM (histamine H3 receptor): 101%
- inhibition at 0.05 µM (histamine H3 receptor): 99.7%
- inhibition at 10 µM (hERG channel; [1]): 2.64%

SMILES: CN1CCCN(CCNC(=O)Nc2ccc(OC3CCN(C4CCC4)CC3)cc2)CC1 [BIOS-A-13, 1-(4-((1-cyclobutylpiperidin-4-yl)oxy)phenyl)-3-(2-(4-methyl-1,4-diazepan-1-yl)ethyl)urea]
- inhibition at 0.005 µM (histamine H3 receptor): 101%
- inhibition at 0.05 µM (histamine H3 receptor): 101%
- inhibition at 10 µM (hERG channel; [1]): -0.54%

SMILES: O=C(NCCN1CCNCC1)Nc1ccc(OC2CCN(C3CCC3)CC2)cc1 [BIOS-A-14, 1-(4-((1-cyclobutylpiperidin-4-yl)oxy)phenyl)-3-(2-(piperazin-1-yl)ethyl)urea]
- inhibition at 0.005 µM (histamine H3 receptor): 100%
- inhibition at 0.05 µM (histamine H3 receptor): 99.7%
- inhibition at 10 µM (hERG channel; [1]): -0.62%

SMILES: O=C(NCCN1CCC(F)(F)CC1)Nc1ccc(OC2CCN(C3CCC3)CC2)cc1 [BIOS-A-7, 1-(4-((1-cyclobutylpiperidin-4-yl)oxy)phenyl)-3-(2-(4,4-difluoropiperidin-1-yl)ethyl)urea]
- inhibition at 0.005 µM (histamine H3 receptor): 101%
- inhibition at 0.05 µM (histamine H3 receptor): 100%

SMILES: O=C(NCCN1CCC(O)CC1)Nc1ccc(OC2CCN(C3CCC3)CC2)cc1 [BIOS-A-9, 1-(4-((1-cyclobutylpiperidin-4-yl)oxy)phenyl)-3-(2-(4-hydroxypiperidin-1-yl)ethyl)urea]
- inhibition at 0.005 µM (histamine H3 receptor): 101%
- inhibition at 0.05 µM (histamine H3 receptor): 101%

SMILES: CC(C)N1CCN(CCNC(=O)Nc2ccc(OC3CCN(C4CCC4)CC3)cc2)CC1 [BIOS-A-11, 1-(4-((1-cyclobutylpiperidin-4-yl)oxy)phenyl)-3-(2-(4-isopropylpiperazin-1-yl)ethyl)urea]
- inhibition at 0.005 µM (histamine H3 receptor): 100%
- inhibition at 0.05 µM (histamine H3 receptor): 100%
- inhibition at 10 µM (hERG channel; [1]): -1.22%
- inhibition at 10 µM (hERG channel; [2]): < 5%

SMILES: O=C(NCCN1CCSCC1)Nc1ccc(OC2CCN(C3CCC3)CC2)cc1 [BIOS-A-8, 1-(4-((1-cyclobutylpiperidin-4-yl)oxy)phenyl)-3-(2-thiomorpholinoethyl)urea]
- inhibition at 0.005 µM (histamine H3 receptor): 100%
- inhibition at 0.05 µM (histamine H3 receptor): 100%
